For orientation: IC50 means the concentration needed to halve the response being measured.

SMILES strings stand for the structures.

The target of this assay is CDK2 (cyclin A or cyclin E complex) (Homo sapiens (Human), UniProt P24941). As to the kind of experiment: CDK2 in vitro kinase assay (either cyclin A or E-dependent), SPA with biotinylated Histone H1 peptide and 33P-ATP. The settings on record: Table 87. Type of assay: biochemical.
Excerpt: Assay: • Baculovirus Constructions: Cyclins A and E were cloned into pFASTBAC (Invitrogen) by PCR, with the addition of a GluTAG sequence (EYMPME) at the amino-terminal end to allow purification on anti-GluTAG affinity columns. The expressed proteins were approximately 46 kDa (cyclin E) and 50 kDa (cyclin A) in size. CDK2 was also cloned into pFASTBAC by PCR, with the addition of a haemaglutinin epitope tag at the carboxy-terminal end ([sequence]). The expressed protein was approximately 34 kDa in size. • Enzyme Production: Recombinant baculoviruses expressing cyclins A, E and CDK2 were infected into SF9 cells at a multiplicity of infection (MOI) of 5, for 48 hrs. Cells were harvested by centrifugation at 1000 RPM for 10 minutes. Cyclin-containing (E or A) pellets were combined with CDK2 containing cell pellets and lysed on ice for 30 minutes in five times the pellet volume of lysis buffer containing 50 mM Tris pH 8.0, 0.5% NP40, 1 mM DTT and protease/phosphatase inhibitors (Roche Diagnostics GmbH, Mannheim, Germany). Mixtures were stirred for 30-60 minutes to promote cyclin-CDK2 complex formation. Mixed lysates were then spun down at 15000 RPM for 10 minutes and the supernatant retained. 5 ml of anti-GluTAG beads (for one liter of SF9 cells) were then used to capture cyclin-CDK2 complexes. Bound beads were washed three times in lysis buffer. Proteins were competitively eluted with lysis buffer containing 100-200 ug/mL of the GluTAG peptide. Eluate was dialyzed overnight in 2 liters of kinase buffer containing 50 mM Tris pH 8.0, 1 mM DTT, 10 mM MgCl2, 100 uM sodium orthovanadate and 20% glycerol. Enzyme was stored in aliquots at −70° C. • In Vitro Kinase Assay: CDK2 kinase assays (either cyclin A or E-dependent) were performed in low protein binding 96-well plates (Corning Inc, Corning, N.Y.). Enzyme was diluted to a final concentration of 50 μg/ml in kinase buffer containing 50 mM Tris pH 8.0, 10 mM MgCl2, 1 mM DTT, and 0.1 mM sodium orthovanadate. The substrate used in these reactions was a biotinylated peptide derived from Histone H1 (from Amersham, UK). The substrate was thawed on ice and diluted to 2 μM in kinase buffer. Compounds were diluted in 10% DMSO to desirable concentrations. For each kinase reaction, 20 μl of the 50 μg/ml enzyme solution (1 μg of enzyme) and 20 μl of the 1 μM substrate solution were mixed, then combined with 10 μl of diluted compound in each well for testing. […] The reaction was allowed to run for 1 hour at room temperature. The reaction was stopped by adding 200 μl of stop buffer containing 0.1% Triton X-100, 1 mM ATP, 5 mM EDTA, and 5 mg/ml streptavidine coated SPA beads (from Amersham, UK) for 15 minutes. The SPA beads were then captured onto a 96-well GF/B filter plate (Packard/Perkin Elmer Life Sciences) using a Filtermate universal harvester (Packard/Perkin Elmer Life Sciences.). Non-specific signals were eliminated by washing the beads twice with 2M NaCl then twice with 2 M NaCl with 1% phosphoric acid. The radioactive signal was then measured using a TopCount 96 well liquid scintillation counter (from Packard/Perkin Elmer Life Sciences). • IC50 Determination: Dose-response curves were plotted from inhibition data generated, each in duplicate, from 8 point serial dilutions of inhibitory compounds. Concentration of compound was plotted against % kinase activity, calculated by CPM of treated samples divided by CPM of untreated samples. To generate IC50 values, the dose-response curves were then fitted to a standard sigmoidal curve and IC50 values were derived by nonlinear regression analysis. These kinase activities were generated by using cyclin A or cyclin E using the above-described assay.
`Clc1ccccc1-c1cc(NCc2cccnc2)n2ncc(Br)c2n1` [Example 8]: half-maximal inhibition (IC50) required 3 nM.
Under `CC(C)(C)c1cc(NCc2ccncc2)n2ncc(Br)c2n1` [Example 12] stands 170 nM.
Turning to `Fc1ccccc1-c1cc(NCc2cccnc2)n2ncc(Cl)c2n1` [Example 5], the IC50 turned out to be 21 nM.
`CC(C)c1cc(NCc2ccncc2)n2ncc(Br)c2n1` [Example 10] displayed an IC50 of 42 nM.
In turn, `N#Cc1cnn2c(NCc3ccncc3)cc(-c3ccccc3)nc12` [Example 16] came in with an IC50 of 620 nM.
For `Fc1ccccc1-c1cc(NCc2cccnc2)n2ncc(Br)c2n1` [Example 4], half-maximal inhibition (IC50) was put at 11 nM.

For the origin of these results see patent publication US8580782B2, “Substituted pyrazolo[1,5-a]pyrimidines as cyclin dependent kinase inhibitors” (Merck Sharp & Dohme Corp., priority 2002, dated 2013).
